PubChem BioAssay (NCI)
Where “and” joins values, the source holds several entries; their conditions need not be identical. Equal entries are not always repeated.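 Briefly, cells in 96-well plates were exposed to five compound concentrations for 48 h, and endpoints were estimated by linear interpolation. At the GI50, growth is halved. Definition used: TGI = concentration required for complete inhibition of growth.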

Columns and labels:
Assay in all cases: NCI tumour cell line growth inhibition, 48 h
[1] = test system: DMS 273 small cell lung
[2] = test system: M19-MEL melanoma
[3] = test system: SK-MEL-5 melanoma
[4] = test system: TK-10 renal
[5] = test system: MALME-3M melanoma
[6] = test system: SF-295 CNS
[7] = test system: IGROV1 ovarian
[8] = test system: DU-145 prostate
[9] = test system: RXF 393 renal
[10] = test system: UO-31 renal

Row | Compound | TGI [1] | TGI [2] | GI50 [3] | TGI [4] | GI50 [5] | TGI [5] | TGI [6] | GI50 [7] | TGI [7] | TGI [8] | GI50 [9] | TGI [9] | GI50 [1] | GI50 [2] | TGI [3] | GI50 [4] | GI50 [6] | GI50 [10] | TGI [10]
1 | COc1ccc2cc3[n+](cc2c1OC)CCc1cc2c(cc1-3)OCO2 | 73.7 µM and 49.4 µM | 22.4 µM and 41.6 µM | 1.26 µM | > 100 µM | 2.24 µM and 5.1 µM | 27.8 µM [middle of 5 runs] | > 100 µM and 147 µM | 18.4 µM | > 100 µM and 137 µM | > 100 µM | 50.7 µM | > 100 µM and 223 µM |  |  |  |  |  |  | 
2 | C/C=C(\CCC1NCCc2c1[nH]c1ccccc21)[Si](C)(C)C (stereo not given) | 11.3 µM and 4.07 µM | 12.9 µM and 3.89 µM | 5.63 µM and 2.32 µM | 27.5 µM and 17 µM |  | 7.1 µM and 3.23 µM | 17.5 µM and 5.52 µM | 11.9 µM and 4 µM | 16.6 µM and 12.6 µM | 26.1 µM |  | 17.6 µM and 2.53 µM | 5.99 µM and 1.93 µM | 6.62 µM and 1.95 µM | 10.2 µM and 5.23 µM | 14.3 µM and 5.62 µM | 7.13 µM and 2.32 µM | 8.47 µM and 3.65 µM | 22.5 µM and 10.5 µM
3 | N#Cc1c(-c2ccc(Cl)cc2)c(-c2ccc(Cl)cc2)nn(CCOC(=O)CCC(=O)O)c1=O | 14.7 µM | > 100 µM |  | > 100 µM |  | 74.9 µM | 16.9 µM |  | > 85.3 µM | 6.86 µM |  | 11.9 µM |  |  | 2.59 µM |  |  |  | 50 µM
4 | C[N+](C)(C)Cc1c(CC#N)[nH]c2ccccc12 | > 100 µM | > 100 µM |  | > 100 µM |  | > 100 µM | > 100 µM |  | > 100 µM |  |  | > 100 µM |  |  | > 100 µM |  |  |  | > 100 µM
5 | COc1ccc(CC2NCCc3cc(OC)c(OC)cc32)cc1 (stereo not given) | > 100 µM | > 100 µM |  | > 100 µM |  | > 100 µM | > 100 µM |  | > 100 µM |  |  | > 100 µM |  |  | > 100 µM |  |  |  | > 100 µM
6 | CCOC(=O)N[C@H]1CCc2cc(O)c(OC)c(OC)c2-c2ccc(SC)c(=O)cc21 | > 100 µM | > 100 µM |  | > 100 µM |  | > 100 µM | 0.0995 µM |  | > 86.9 µM |  |  | 0.0207 µM |  |  | 0.0145 µM |  |  |  | > 100 µM
7 | Cn1cnc([N+](=O)[O-])c1Sc1nc2cccnc2s1 | 57.4 µM | 29.6 µM |  | 30.3 µM |  | 22 µM | > 100 µM |  | 33 µM |  |  | 32.9 µM |  |  | 35.7 µM |  |  |  | 34.1 µM
